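At the GI50, growth is halved. TGI: concentration producing complete growth inhibition.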
Columns and labels:
Test in all cases: NCI tumour cell line growth inhibition, 384-well format
PC-3 prostate = test system: PC-3 prostate
NCI/ADR-RES ovarian = test system: NCI/ADR-RES ovarian
EKVX NSCLC = test system: EKVX NSCLC
U251 glioblastoma = test system: U251 glioblastoma
SK-MEL-5 melanoma = test system: SK-MEL-5 melanoma
SF-268 CNS = test system: SF-268 CNS
SW-620 colon = test system: SW-620 colon
RPMI-8226 leukemia = test system: RPMI-8226 leukemia
UO-31 renal = test system: UO-31 renal
MDA-MB-468 breast = test system: MDA-MB-468 breast
UACC-257 melanoma = test system: UACC-257 melanoma
HL-60(TB) leukemia = test system: HL-60(TB) leukemia
HCC-2998 colon = test system: HCC-2998 colon
OVCAR-8 ovarian = test system: OVCAR-8 ovarian
SF-539 CNS = test system: SF-539 CNS
BT-549 breast = test system: BT-549 breast
KM12 colon = test system: KM12 colon
SK-OV-3 ovarian = test system: SK-OV-3 ovarian
NCI-H322M lung = test system: NCI-H322M lung
MALME-3M melanoma = test system: MALME-3M melanoma
SF-295 CNS = test system: SF-295 CNS
T-47D breast = test system: T-47D breast
SNB-75 CNS = test system: SNB-75 CNS
TK-10 renal = test system: TK-10 renal
OVCAR-3 ovarian = test system: OVCAR-3 ovarian
786-0 renal = test system: 786-0 renal
NCI-H226 lung = test system: NCI-H226 lung
ACHN renal = test system: ACHN renal
MCF7 breast = test system: MCF7 breast
M14 melanoma = test system: M14 melanoma
SK-MEL-2 melanoma = test system: SK-MEL-2 melanoma
SK-MEL-28 melanoma = test system: SK-MEL-28 melanoma
NCI-H23 lung = test system: NCI-H23 lung
NCI-H522 lung = test system: NCI-H522 lung
A498 renal = test system: A498 renal
HS 578T breast = test system: HS 578T breast
HOP-62 NSCLC = test system: HOP-62 NSCLC
NCI-H460 NSCLC = test system: NCI-H460 NSCLC
CAKI-1 renal = test system: CAKI-1 renal
OVCAR-4 ovarian = test system: OVCAR-4 ovarian
RXF 393 renal = test system: RXF 393 renal
MOLT-4 leukemia = test system: MOLT-4 leukemia
HT29 colon = test system: HT29 colon
K-562 leukemia = test system: K-562 leukemia
DU-145 prostate = test system: DU-145 prostate
HCT-116 colon = test system: HCT-116 colon
A549 NSCLC = test system: A549 NSCLC
MDA-MB-231 breast = test system: MDA-MB-231 breast
SNB-19 CNS = test system: SNB-19 CNS
COLO 205 colon = test system: COLO 205 colon
MDA-MB-435 melanoma = test system: MDA-MB-435 melanoma
HOP-92 NSCLC = test system: HOP-92 NSCLC
HCT-15 colon = test system: HCT-15 colon
UACC-62 melanoma = test system: UACC-62 melanoma
SN12C renal = test system: SN12C renal
IGROV1 ovarian = test system: IGROV1 ovarian
CCRF-CEM leukemia = test system: CCRF-CEM leukemia
OVCAR-5 ovarian = test system: OVCAR-5 ovarian
LOX IMVI melanoma = test system: LOX IMVI melanoma

## CCNC(=O)Nc1ccc(-c2nc3c(c(N4CCOC[C@@H]4C)n2)CCN(C2COC2)C3)cc1
PC-3 prostate
  GI50: 0.218 µM
  TGI: > 100 µM
NCI/ADR-RES ovarian
  GI50: 11.4 µM
  TGI: > 100 µM
EKVX NSCLC
  GI50: 0.381 µM
  TGI: 9.36 µM
U251 glioblastoma
  GI50: 1.35 µM
  TGI: > 100 µM
SK-MEL-5 melanoma
  GI50: 0.221 µM
  TGI: 2.26 µM
SF-268 CNS
  GI50: 1.22 µM
  TGI: > 100 µM
SW-620 colon
  GI50: 2.28 µM
  TGI: > 100 µM
RPMI-8226 leukemia
  GI50: 0.0387 µM
  TGI: 0.276 µM
UO-31 renal
  GI50: 0.654 µM
  TGI: > 100 µM
MDA-MB-468 breast
  GI50: 0.173 µM
  TGI: 2.38 µM
UACC-257 melanoma
  GI50: 1.45 µM
  TGI: 14.6 µM
HL-60(TB) leukemia
  GI50: 5.4 µM
  TGI: > 100 µM
HCC-2998 colon
  GI50: 0.44 µM
  TGI: > 100 µM
OVCAR-8 ovarian
  GI50: 0.966 µM
  TGI: > 100 µM
SF-539 CNS
  GI50: 0.656 µM
  TGI: > 100 µM
BT-549 breast
  GI50: 0.22 µM
  TGI: 2.56 µM
KM12 colon
  GI50: 0.479 µM
  TGI: > 100 µM
SK-OV-3 ovarian
  GI50: 0.189 µM
  TGI: 5.37 µM
NCI-H322M lung
  GI50: 0.527 µM
  TGI: > 100 µM
MALME-3M melanoma
  GI50: 0.167 µM
  TGI: 3.02 µM
SF-295 CNS
  GI50: 0.305 µM
  TGI: 2.54 µM
T-47D breast
  GI50: 0.0263 µM
  TGI: 0.437 µM
SNB-75 CNS
  GI50: 0.0462 µM
  TGI: 0.98 µM
TK-10 renal
  GI50: 0.39 µM
  TGI: 5.65 µM
OVCAR-3 ovarian
  GI50: 0.445 µM
  TGI: > 100 µM
786-0 renal
  GI50: 1.19 µM
  TGI: > 100 µM
NCI-H226 lung
  GI50: 0.207 µM
  TGI: 3.33 µM
ACHN renal
  GI50: 0.485 µM
  TGI: > 100 µM
MCF7 breast
  GI50: 0.131 µM
  TGI: 68.6 µM
M14 melanoma
  GI50: 0.416 µM
  TGI: > 100 µM
SK-MEL-2 melanoma
  GI50: 1.89 µM
  TGI: 7.59 µM
SK-MEL-28 melanoma
  GI50: 0.443 µM
  TGI: 28 µM
NCI-H23 lung
  GI50: 1.91 µM
  TGI: > 100 µM
NCI-H522 lung
  GI50: 0.159 µM
  TGI: 8.13 µM
A498 renal
  GI50: 0.0938 µM
  TGI: 1.9 µM
HS 578T breast
  GI50: 0.116 µM
  TGI: 0.596 µM
HOP-62 NSCLC
  GI50: 0.494 µM
  TGI: 11 µM
NCI-H460 NSCLC
  GI50: 0.108 µM
  TGI: > 100 µM
CAKI-1 renal
  GI50: 0.323 µM
  TGI: 4.1 µM
OVCAR-4 ovarian
  GI50: 0.279 µM
  TGI: 3.45 µM
RXF 393 renal
  GI50: 0.212 µM
  TGI: 2.13 µM
MOLT-4 leukemia
  GI50: 0.207 µM
  TGI: 11.1 µM
HT29 colon
  GI50: 4.78 µM
  TGI: > 100 µM
K-562 leukemia
  GI50: 0.752 µM
  TGI: > 100 µM
DU-145 prostate
  GI50: 0.64 µM
  TGI: > 100 µM
HCT-116 colon
  GI50: 3.28 µM
  TGI: > 100 µM
A549 NSCLC
  GI50: 0.48 µM
  TGI: > 100 µM
MDA-MB-231 breast
  GI50: 0.476 µM
  TGI: > 100 µM
SNB-19 CNS
  GI50: 2.82 µM
  TGI: > 100 µM
COLO 205 colon
  GI50: 0.347 µM
  TGI: > 100 µM
MDA-MB-435 melanoma
  GI50: 0.716 µM
  TGI: 7.41 µM
HOP-92 NSCLC
  GI50: 0.605 µM
  TGI: 8.68 µM
HCT-15 colon
  GI50: 0.669 µM
  TGI: > 100 µM
UACC-62 melanoma
  GI50: 0.366 µM
  TGI: 3.81 µM
SN12C renal
  GI50: 0.31 µM
  TGI: > 100 µM
IGROV1 ovarian
  GI50: 0.147 µM
  TGI: 0.885 µM
CCRF-CEM leukemia
  GI50: 0.325 µM
  TGI: 19.8 µM
OVCAR-5 ovarian
  GI50: 1.04 µM
  TGI: > 100 µM
LOX IMVI melanoma
  GI50: 0.658 µM
  TGI: 13.8 µM
